We go through 62 substances from patent US20240368668A1, “SUBSTRATES AND BIOMARKERS OF ADAMTS7” (The Broad Institute, Inc., priority 2021, published 2024).

Square brackets hold non-standard residues; d marks the D form. Ends that are not written are not given here. pGlu = O=C1CC[C@@H](C(=O)O)N1

The assay deals with mouse ADAMTS7. Nature of the assay: TMT10 TAILS N-terminomics, SMC1 experiment (Ad-mADAMTS7 WT vs EQ vs Luc, technical replicates, trypsin digest). It counts as cell-based. The note with it: TAILS neo-N-terminal peptide abundance; log fold change, Ad-mADAMTS7 WT over EQ. An excerpt: ADAMTS7 Expression, Cell Culture and Preparation of the Secreted Proteins—Full-length mouse Adamts7 1-1857 (Uniprot Q68SA9, WT or E373Q catalytic mutant) with a carboxyl terminal 3xFLAG tag was used to generate custom adenoviruses as previously described. Adeno-CMV-Luciferase (Ad-Luc) from Vector Biolabs was used as a negative control. Human Coronary Artery Smooth Muscle Cells (HCA-SMC) were obtained from Lonza and expanded in Lonza SmGM-2 media in 15 cm tissue culture plates. Twenty-four hours before media collection, near confluent plates were transduced with 50 MOI adenovirus and switched to Lonza Basal SM media with volumes of 20 ml per 15 cm plate. Expression of the Flag tagged ADAMTS7 was confirmed from the media using western blot and detected using the anti-Flag M2-HRP antibody (Sigma, A8592). Collected media was processed by adding protease inhibitors (1 mM EDTA and 1 mM PMSF) and clarified by 500 g×5 min spin at 4 C to pellet cell debris. Cell media supernatants were then passed through a 0.22 um filter and kept chilled. Processed media was then concentrated 50-100× using 3 kDa Centricon Plus-70 filter unit, spun at 3,500 g×60 min at 4 C. Approximately 10% of the processed, concentrated media was set aside for total secretome proteolytic analysis. The remaining 90% of the processed, concentrated media was buffer exchanged into 50 mM HEPES pH 8.0, 150 mM NaCl (2×50 ml) using the 3 kDa Centricon Plus-70 filter unit and concentrated to >2 mg/ml to serve as input for the TAILS experiment. Secretome and TAILS input samples were stored at −80° C.
For the first experiment, referred to as SMC1, 120 ml of media from 6×15 cm dishes was pooled from each condition (Luc, WT, EQ) and processed to produce three separate inputs for the TAILS experiment. Luc, WT and EQ inputs from the SMC1 experiment were each divided into triplicate 400 ug samples to generate technical replicate TAILS data. For the second experiment, referred to as SMC2, media was processed separately in triplicate for each condition (Luc1, Luc2, Luc3, WT1, WT2, WT3, EQ1, EQ2, EQ3) using 60 ml of media from 3×15 cm dishes for each process replicate. Inputs from the SMC2 experiment used process replicates of 300 ug each to generate TAILS data. The third experiment used input from cultured Human umbilical vein endothelial cells (HUVEC) from Lifeline Cell Technology grown in VascuLife Media and transduced in Lifeline Basal EC (+bFGF2 10 ng/ml). The HUVEC experiment used the same strategy as the SMC2 experiment, with 40 ml of media from 2×15 cm dishes for each process replicate and used 200 ug each to generate TAILS data. Inputs for process replicate experiments were restricted to the lowest concentration from the 9 parallel samples for SMC2 or HUVEC.
TMT10 isotopic labeling and negative selection of non-labeled peptides-Sample preparation was performed based on the TAILS protocol from the Overall lab with some modifications. From a single experiment, nine parallel protein samples in 50 mM HEPES pH 8.0, 150 mM NaCl were separately denatured with guanidinium chloride (Sigma, G4505) to reach a final concentration of 2.5M guanidinium chloride and 250 mM HEPES and incubated at 65° C. for 15 min. Reduction was achieved through addition of tris(2-carboxylethyl) phosphine (TCEP) at a final concentration of […] and incubated at 65° C. for 45 min. Alkylation reaction was performed with addition of iodoacetamide (IAA, Sigma, A3221) to a final concentration of 10 mM IAA for 15 min at room temperature in the dark. Following denaturation, reduction and alkylation steps, ten percent of each of the nine parallel protein samples was removed and combined to serve as a pooled reference. Isobaric tags were added to free amine groups using the TMT10plex Isobaric Mass Tagging Kit (ThermoFisher, 90113) with TMT channels randomly assigned to the nine samples and TMT 131 assigned to the pooled reference. […]
With “ACTB_21 (FAGDDAPR; listed as Homo sapiens)”, the logFC.mWT.over.mEQ is listed as 1.17. “ACTB_105 (LTEAPLNPKANR; listed as Homo sapiens)” had a logFC.mWT.over.mEQ of 2.00. Next, “ADAM9_69 (VIQAEGKEHIIHLER; listed as Homo sapiens)”: 1.55. Next, “AEBP1_37 (FLEGFLSELEPEPR; listed as Homo sapiens)”: 3.41; “APLP2_579 (ISETPVDVR; listed as Homo sapiens)”: 2.00; “CCDC80_66 (LEEPNLQPLQR; listed as Homo sapiens)”: 3.70. With “ECM1_134 (FGDQSHPEPESWNAAQHCQQDR; listed as Homo sapiens)” the figure was 2.74; with “EFEMP1_124 (AVAGPEMQTGR; listed as Homo sapiens)”, 4.43; with “EFEMP1_125 (VAGPEMQTGR; listed as Homo sapiens)”, 2.25. Consider “EFHD2_67 (QGIGEPQSPSR; listed as Homo sapiens)”, for which the logFC.mWT.over.mEQ is given as 0.90. “EHBP1L1_298 (TAPTPAPR; listed as Homo sapiens)” yielded a logFC.mWT.over.mEQ of 1.23. In turn, “FBLN2_259 (ALGPPAPVQAKAR; listed as Homo sapiens)” gave a logFC.mWT.over.mEQ of 1.29.

“FBLN2_260 (LGPPAPVQAKAR; listed as Homo sapiens)” showed a logFC.mWT.over.mEQ of 4.21. With “FBN1_29 (LEAGNVKETR; listed as Homo sapiens)” the figure was 4.49; with “FBN1_53 (LKGPNVCGSR; listed as Homo sapiens)”, 4.93.

Consider “FLNA_612 (SVEGPSQAKIECDDKGDGSCDVR; listed as Homo sapiens)”, for which the logFC.mWT.over.mEQ is on record as 1.69.

“FLNA_695 (FTVDAKHGGKAPLR; listed as Homo sapiens)” returned a logFC.mWT.over.mEQ of 5.04. Turning to “FLNA_1285 (LTQTGGPHVKAR; listed as Homo sapiens)”, the logFC.mWT.over.mEQ was determined as 5.06. Next, “FN1_36 (MVQPQSPVAVSQSKPGCYDNGKHYQINQQWER; listed as Homo sapiens)”: 3.34; “FN1_40 (QSPVAVSQSKPGCYDNGKHYQINQQWER; listed as Homo sapiens)”: 4.27. With “FN1_45 (VSQSKPGCYDNGKHYQINQQWER; listed as Homo sapiens)” the figure was 3.20. For “FN1_47 ([code q]SKPGCYD[code n]GKHYQINQQWER; not fully specified; listed as Homo sapiens)”, the logFC.mWT.over.mEQ amounted to 2.89.

The substance “FN1_281 (SGSGPFTDVR; listed as Homo sapiens)” came in with a logFC.mWT.over.mEQ of 1.88.

In turn, “FN1_282 (GSGPFTDVR; listed as Homo sapiens)” displayed a logFC.mWT.over.mEQ of 3.89. In turn, “FN1_886 (NQESTPVVIQQETTGTPR; listed as Homo sapiens)” gave a logFC.mWT.over.mEQ of 1.21. Next, “FN1_1143 (LTPGVEYVYTIQVLR; listed as Homo sapiens)”: 0.86; “FN1_1656 (SSSPVTGYR; listed as Homo sapiens)”: 1.52. “FN1_1731 (FTDVDVDSIKIAWESPQGQVSR; listed as Homo sapiens)”: the logFC.mWT.over.mEQ worked out at 2.70.

With “FN1_2143 (FEEHGFR; listed as Homo sapiens)”, the logFC.mWT.over.mEQ is on record as 1.24. With “FN1_2217 (FQDTSEYIISCHPVGTDEEPLQFR; listed as Homo sapiens)” the figure was 2.27; with “GALNT2_31 (LAGGAGGGAGR; listed as Homo sapiens)”, 1.19.

Consider “GSN_35 (SQAGAPQGR; listed as Homo sapiens)”, for which the logFC.mWT.over.mEQ was 4.37. “GSN_413 (HIANVER; listed as Homo sapiens)” yielded a logFC.mWT.over.mEQ of 2.19. Next, “HEG1_49 (GAGLELQLER; listed as Homo sapiens)”: 1.20; “HLA−C_52 (VDDTQFVR; listed as Homo sapiens)”: 0.78. Next, “HSPG2_275 (LLPGSVR; listed as Homo sapiens)”: 2.49. In the case of “HSPG2_1937 (SSAGQQVAR; listed as Homo sapiens)”, the logFC.mWT.over.mEQ is recorded as 0.94.

With “HSPG2_2331 (ANLAYPAGSTQPIR; listed as Homo sapiens)”, the logFC.mWT.over.mEQ stood at 2.04. Substance “HSPG2_2333 (LAYPAGSTQPIR; listed as Homo sapiens)” came in with a logFC.mWT.over.mEQ of 1.92.

“HSPG2_2688 (VADSGEYVCR; listed as Homo sapiens)” returned a logFC.mWT.over.mEQ of 3.02. “HSPG2_3250 (SPLPWQHR; listed as Homo sapiens)”: the logFC.mWT.over.mEQ is reported as 1.01. For the substance “HSPG2_3542 (IAHVELADAGQYR; listed as Homo sapiens)”, the logFC.mWT.over.mEQ was 0.67.

In turn, “HSPG2_3647 ([pGlu]GKVKAFAHLQVPER; listed as Homo sapiens)” yielded a logFC.mWT.over.mEQ of 1.22. In turn, “HSPG2_3672 (SFLPLPTIKDAYR; listed as Homo sapiens)” displayed a logFC.mWT.over.mEQ of 1.03. With “HSPG2_3813 (SSGFIGCVR; listed as Homo sapiens)” the figure was 1.09; with “HSPG2_4004 (SAEPLALGR; listed as Homo sapiens)”, 1.25; with “HSPG2_4021 (LNKDGSLR; listed as Homo sapiens)”, 0.73. Regarding “HSPG2_4075 (GCVGEVSVNGKR; listed as Homo sapiens)”, the logFC.mWT.over.mEQ came to 0.75. “HSPG2_4133 (DGFKGDLCEHEENPCQLR; listed as Homo sapiens)” showed a logFC.mWT.over.mEQ of 0.76. “HTRA1_33 (LAAGCPDR; listed as Homo sapiens)” showed a logFC.mWT.over.mEQ of 2.78. In turn, “IFI30_43 (YKTGNLYLR; listed as Homo sapiens)” yielded a logFC.mWT.over.mEQ of 3.19.

In the case of “IGFBP3_31 (SAGLGPVVR; listed as Homo sapiens)”, the logFC.mWT.over.mEQ is 2.49. With “IGFBP3_32 (AGLGPVVR; listed as Homo sapiens)” the figure was 3.78. In the case of “IGFBP3_200 (FSSESKR; listed as Homo sapiens)”, the logFC.mWT.over.mEQ stood at 2.41. With “IGFBP7_101 (AAGGPGVSGVCVCKSR; listed as Homo sapiens)” the figure was 3.69; with “LASP1_123 (HEEFEKSR; listed as Homo sapiens)”, 1.40. With “LGALS1_53 (HGDANTIVCNSKDGGAWGTEQR; listed as Homo sapiens)” the figure was 3.89; with “LGALS3BP_447 (FQAPSDYR; listed as Homo sapiens)”, 4.13; with “LOXL1_219 (VASAGVIYPYQPR; listed as Homo sapiens)”, 1.09. With “LOXL2_37 (FQQPAPEYHQPQAPANVAKIQLR; listed as Homo sapiens)” the figure was 3.28; with “LOXL2_38 ([code q]QPAPEYHQPQAPANVAKIQLR; not fully specified; listed as Homo sapiens)”, 1.26. “LOXL2_318 (AYKPEQPLVR; listed as Homo sapiens)” returned a logFC.mWT.over.mEQ of 0.78.
